Consider two substances from patent publication US20080201790A1, “Method and product for regulating cell responsiveness to external signals” (priority 1993, published 2008).

The test system of this experiment is JNK. The experiment can be described thus: JNK solid state kinase assay (GST-Jun) in L929 cells. The class given is cell-based, murine. The procedure: In panel A cells were treated for 10 minutes with the indicated concentration of TNFα. JNK activation was measured using a solid phase kinase assay resulting in phosphorylation of GST-Jun. In […] the time course of MAPK activation is shown. MAPK was isolated from cell lysates on DEAE sephacel columns and MAPK activation was measured by phosphorylation of the EGFR peptide substrate. Panel C depicts the concentration curve of MAPK activation by TNFα. Cells were treated with the indicated concentration of TNFα and MAPK was assayed.
Cell lines and culture. L929 cells (ATCC CCL1 were maintained in Dulbecco's modified Eagle's medium with 5% newborn calf serum and 5% bovine calf serum (BCS) supplemented with 100 ug/ml streptomycin and 100 U/ml penicillin. The cells were grown in 10 cm dishes at 37° C. in 7.5% CO2. Cells were made quiescent where indicated by incubation in Dulbecco's modified Eagle's medium and 0.1% bovine serum albumin for 24 h. Recombinant murine TNFα and recombinant human bFGF (147aa) were from R&D Systems, Minneapolis, Minn. Cells were pretreated where indicated with the MEK-1 inhibitor PD#098059 (Parke-Davis Pharmaceutical Corp. Ann Arbor, Mich.) for 1 h at 37° C. Cells were stimulated by incubation with the indicated cytokine or growth factor for various times at 37° C. Stimulation was stopped by rinsing the plates twice with ice cold phosphate buffered saline (PBS) and lysing the cells in the appropriate lysis buffer. Cells were scraped from the plates and nuclei were pelleted for 10 min at 14,000 RPM in a microcentrifuge. JNK assay. JNK activity was measured using a solid state kinase assay in which glutathione S-transferase-c-Jun (1-79) (GST-JUN) cound to glutathione-Sepharose 4B beads was used to affinity purify JNK and then JNK activity was measured in an in vitro kinase assay using the sepharose bound GST-Jun as a substrate (Hibi, M., et al. (1993) Genes & Development 7:2135-2148). Stimulated or unstimulated cells were lysed in 0.5% Nonidet P-40, 20 mM HEPES pH 7.2, 100 mM NaCl, 2 mM dithiothreitol, 1 mM EDTA, 1.0 mM phenylmethylsulfonylfluoride, 1 μg/ml aprotinin and the nuclei pelleted. Lysates were normalized for protein content. JNK was affinity purified from 50-100 μg of cell lysate by the addition of 10 ul of GST-Jun sepharose slurry (2 μg GST-Jun). Binding to GST-Jun efficiently isolates the two major forms of JNK (p45 and p55) and under the conditions used JNK isolation was linear for 10-250 μg of cell lysate. The lysates were rotated at 4° C. for 1-3 h. Beads were washed twice in lysis buffer and then twice in PAN (10 mM PIPES, pH 7.0, 100 mM NaCl, 21 μg/ml aprotinin). Kinase reactions were carried out at 30° C. for 15 min in 20 mM Hepes pH 7.2, 20 mM β-glycerophosphate, 10 mM p-nitrophenyl phosphate, 10 mM MgCl2, 1 mM dithiothreitol, 50 μm sodium vanadate, 10 μCi γ^32P-ATP 4300 Ci/mmole. The kinase reaction was linear from 0-30 min. MAPK Assay MAPK activity was measured exactly as described previously (Gardner, A. M., et al. (1994) Meth. Enzymol. 238:258-270) with the exception that MonoQ FPLC fractionation was replaced by step elution from a DEAE-Sephacel column using 0.5 M NaCl in loading buffer. The eluate was assayed in triplicate using the epidermal growth factor receptor 662-681 peptide (EGFR662-681) as a selective substrate for MAPK activity (Heasley, L. E., et al. (1994) American Journal of Physiology (Renal Fluid Electrolyte Physiol. 36) 267:F366-F373). […] Cells were lysed by scraping in ice cold RIPA buffer (50 mM Tris-HCl, pH 7.2, 150 mM NaCl, 0.1% SDS, 0.5% sodium deoxycholate, 1.0% Triton X-100, 10 mM sodium pyrophosphate, 25 mM β-glycerophosphate, 2 mM sodium vanadate, 2.1 μg/ml aprotinin) and the nuclei were pelletted. […]

Consider “bFGF: recombinant human bFGF (147aa), basic fibroblast growth factor”, for which the “effect on JNK activity” value (2.5 ng/ml bFGF) is listed as “little or no effect on JNK activity”. For the same substance, the “effect on TNFα stimulation of JNK” value (L929 cells) is reported as “did not alter the magnitude of JNK activation in response to TNFα”.
As for TNFα, the JNK activation result (0.1 ng/ml TNFα) is given as “greater than four-fold”. For the same substance, the “JNK activity relative to basal” value (1-2 hr post-stimulation) is “two-fold above basal”. In addition, where the note is “L929 cells”, the “concentration giving maximal JNK activation” value amounted to 1 ng/mL and the “time of peak JNK activity” value was in the range of 10 to 15 min.
